Measurements published in US12479843B2, “Spiro ring-containing quinazoline compounds” (WIGEN BIOMEDICINE TECHNOLOGY (SHANGHAI) CO., LTD., priority 2019, dated 2025).

Each molecule was assayed on H358 cells (assay: Antiproliferative activity against H358 cells (Cell Titer Glow, ultra-low attachment plate)). Conditions: Homo sapiens, NCI-H358, 72 h, 96-well ultra-low attachment plate, three days after addition of compound, Cell Titer Glow.
Type: cell-based
Description: 2500 H358 cells were seeded in a 96-well ultra-low attachment plate (corning, 7007). After one day of growth, a serially diluted compound (a maximum concentration of 5 μM, 5-fold dilution, a total of five doses) was added. Three days after the addition of the compound, Cell Titer Glow (Promega, G9681) was added to evaluate pellet growth, and the IC50 value was calculated.

| SMILES | IC50 [nM] |
| --- | --- |
| C=CC(=O)N1CC2(CCN(c3nc(N4CC(N5CC[C@H](C)C5)C4)nc4c(OCC(F)F)c(-c5c(C)ccc6[nH]ncc56)c(C5CC5)cc34)CC2)C1 [Compound 333] | < 300 |
| C=CC(=O)N1CC2(CCN(c3nc(N4CC[C@H](N5CC(C)C5)C4)nc4c(OCC(F)(F)F)c(-c5c(C)ccc6[nH]ncc56)c(C5CC5)cc34)CC2)C1 [Compound 296] | < 300 |
| C=C(F)C(=O)N1CC2(CCN(c3nc(N4CC(N5CCOCC5)C4)nc4c(OCC(F)(F)F)c(-c5c(C)ccc6[nH]ncc56)c(C5CC5)cc34)CC2)C1 [Compound 147] | < 300 |
| C=CC(=O)N1CC2(CCN(c3nc(OC4CC5CCC(C4)S5(=O)=O)nc4c(OCC(F)(F)F)c(-c5c(C)ccc6[nH]ncc56)c(C5CC5)cc34)CC2)C1 (stereo not drawn) [Compound 312] | < 300 |
| C=CC(=O)N1CC2(CCN(c3nc(N4CC5(C4)OCC[C@H]5N(C)C)nc4c(OCC(F)(F)F)c(-c5c(C)ccc6[nH]ncc56)c(C5CC5)cc34)CC2)C1 [Compound 281] | < 300 |
| C=CC(=O)N1CC2(CCN(c3nc(N4CC(N5CC(S(C)(=O)=O)C5)C4)nc4c(OCC(F)(F)F)c(-c5c(C)ccc6[nH]ncc56)c(C5CC5)cc34)CC2)C1 [Compound 241] | 300 to 1000 |
| C=CC(=O)N1CC2(CCN(c3nc(N4CC5(CCCO5)C4)nc4c(OCC(F)(F)F)c(-c5c(C)ccc6[nH]ncc56)c(C5CC5)cc34)CC2)C1 [Compound 279] | < 300 |
| C=C(F)C(=O)N1CC2(CCN(c3nc(N4CC(N(C)CCOC)C4)nc4c(OCC(F)(F)F)c(-c5c(C)ccc6[nH]ncc56)c(C5CC5)cc34)CC2)C1 [Compound 141] | < 300 |
| C=CC(=O)N1CC2(CCN(c3nc(N4CC(N5CC[C@@H](C)C5)C4)nc4c(OCC(F)F)c(-c5c(C)ccc6[nH]ncc56)c(C5CC5)cc34)CC2)C1 [Compound 334] | < 300 |
| C=C(F)C(=O)N1CC2(CCN(c3nc(OC4CCN(CCOC)CC4)nc4c(OCC(F)(F)F)c(-c5c(C)ccc6[nH]nnc56)c(C5CC5)cc34)CC2)C1 [Compound 40] | < 300 |

Results, then the molecule that gave them:

| IC50 [nM] | SMILES |
| --- | --- |
| < 300 | C=CC(=O)N1CC2(CCN(c3nc(OC4CCC5(CC4)CN(CCOC)C5)nc4c(OCC(F)(F)F)c(-c5c(C)ccc6[nH]ncc56)c(C5CC5)cc34)CC2)C1 [Compound 137] |
| < 300 | C=CC(=O)N1CC2(CCN(c3nc(N4CCC5(CCN(CCOC)CC5)C4)nc4c(OCC(F)(F)F)c(-c5c(C)ccc6[nH]ncc56)c(C5CC5)cc34)CC2)C1 [Compound 101] |
| < 300 | C=C(C(=O)N1CC2(CCN(c3nc(OC4CCN(CCOC)CC4)nc4c(OCC(F)(F)F)c(-c5c(C)ccc6[nH]ncc56)c(C5CC5)cc34)CC2)C1)c1cnccn1 [Compound 20] |
| < 300 | C=CC(=O)N1CC2(CCN(c3nc(N4CCC5(CC4)CN(CCOC)C5)nc4c(OCC(F)(F)F)c(-c5c(C)ccc6[nH]ncc56)c(C5CC5)cc34)CC2)C1 [Compound 103] |
| 300 to 1000 | C=CC(=O)N1CC2(CCN(c3nc(OC4CCC5(CC4)CN(C)C5)nc4c(OCC(F)(F)F)c(-c5c(C)ccc6[nH]ncc56)c(C5CC5)cc34)CC2)C1 [Compound 135] |

These molecules were tested on pERK level in H358 cells (assay: pERK and ERK protein content assay in H358 cells (ELISA)). Conditions: Homo sapiens, NCI-H358, compound 1 μM, 24 h, pERK/ERK ratio compared with DMSO group, read-out: Inhibition rate (%) of pERK level.
Type: cell-based
Description: H358 cells were seeded in a 24-well plate. After one day of growth, a test compound (at a concentration of 1 μM) was added. After 24 h of action of the compound, the cells were lysed, and the cell lysate was transferred to a 96-well ELISA plate. The levels of pERK and ERK in the lysate were measured using an ELISA kit (abcam 176660). The ratio of pERK to ERK was calculated and compared with that of the DMSO group, and the percentage of inhibition of pERK activity by the compound was calculated.

| SMILES | inhibition at 1 µM [%] |
| --- | --- |
| C=CC(=O)N1CC2(CCN(c3nc(N4CC(N5CC[C@H](C)C5)C4)nc4c(OCC(F)F)c(-c5c(C)ccc6[nH]ncc56)c(C5CC5)cc34)CC2)C1 [Compound 333] | > 90 |
| C=CC(=O)N1CC2(CCN(c3nc(N4CC[C@H](N5CC(C)C5)C4)nc4c(OCC(F)(F)F)c(-c5c(C)ccc6[nH]ncc56)c(C5CC5)cc34)CC2)C1 [Compound 296] | > 90 |
| C=C(F)C(=O)N1CC2(CCN(c3nc(N4CC(N5CCOCC5)C4)nc4c(OCC(F)(F)F)c(-c5c(C)ccc6[nH]ncc56)c(C5CC5)cc34)CC2)C1 [Compound 147] | > 90 |
| C=CC(=O)N1CC2(CCN(c3nc(OC4CC5CCC(C4)S5(=O)=O)nc4c(OCC(F)(F)F)c(-c5c(C)ccc6[nH]ncc56)c(C5CC5)cc34)CC2)C1 (stereo not drawn) [Compound 312] | > 90 |
| C=CC(=O)N1CC2(CCN(c3nc(OC4CCC5(CC4)CN(CCOC)C5)nc4c(OCC(F)(F)F)c(-c5c(C)ccc6[nH]ncc56)c(C5CC5)cc34)CC2)C1 [Compound 137] | > 90 |
| C=CC(=O)N1CC2(CCN(c3nc(N4CCC5(CCN(CCOC)CC5)C4)nc4c(OCC(F)(F)F)c(-c5c(C)ccc6[nH]ncc56)c(C5CC5)cc34)CC2)C1 [Compound 101] | > 90 |
| C=CC(=O)N1CC2(CCN(c3nc(N4CC5(C4)OCC[C@H]5N(C)C)nc4c(OCC(F)(F)F)c(-c5c(C)ccc6[nH]ncc56)c(C5CC5)cc34)CC2)C1 [Compound 281] | > 90 |
| C=CC(=O)N1CC2(CCN(c3nc(N4CC(N5CC(S(C)(=O)=O)C5)C4)nc4c(OCC(F)(F)F)c(-c5c(C)ccc6[nH]ncc56)c(C5CC5)cc34)CC2)C1 [Compound 241] | 50 to 90 |
| C=CC(=O)N1CC2(CCN(c3nc(N4CC5(CCCO5)C4)nc4c(OCC(F)(F)F)c(-c5c(C)ccc6[nH]ncc56)c(C5CC5)cc34)CC2)C1 [Compound 279] | > 90 |
| C=C(C(=O)N1CC2(CCN(c3nc(OC4CCN(CCOC)CC4)nc4c(OCC(F)(F)F)c(-c5c(C)ccc6[nH]ncc56)c(C5CC5)cc34)CC2)C1)c1cnccn1 [Compound 20] | > 90 |
| C=C(F)C(=O)N1CC2(CCN(c3nc(N4CC(N(C)CCOC)C4)nc4c(OCC(F)(F)F)c(-c5c(C)ccc6[nH]ncc56)c(C5CC5)cc34)CC2)C1 [Compound 141] | > 90 |
| C=CC(=O)N1CC2(CCN(c3nc(N4CCC5(CC4)CN(CCOC)C5)nc4c(OCC(F)(F)F)c(-c5c(C)ccc6[nH]ncc56)c(C5CC5)cc34)CC2)C1 [Compound 103] | > 90 |
| C=CC(=O)N1CC2(CCN(c3nc(N4CC(N5CC[C@@H](C)C5)C4)nc4c(OCC(F)F)c(-c5c(C)ccc6[nH]ncc56)c(C5CC5)cc34)CC2)C1 [Compound 334] | > 90 |
| C=C(F)C(=O)N1CC2(CCN(c3nc(OC4CCN(CCOC)CC4)nc4c(OCC(F)(F)F)c(-c5c(C)ccc6[nH]nnc56)c(C5CC5)cc34)CC2)C1 [Compound 40] | > 90 |
| C=CC(=O)N1CC2(CCN(c3nc(OC4CCC5(CC4)CN(C)C5)nc4c(OCC(F)(F)F)c(-c5c(C)ccc6[nH]ncc56)c(C5CC5)cc34)CC2)C1 [Compound 135] | 50 to 90 |
